According to paper PMC11855827, “High-Throughput Screening of Five Compound Libraries for Anthelmintic Activity and Toxicity Leads to the Discovery of Two Flavonoid Compounds” (International Journal of Molecular Sciences, 2025):
Like-named read-outs stand apart in the source and are kept apart here.

System: C. elegans
Assay: microbe, parasite or virus in culture
Conditions: Caenorhabditis elegans
[1] = 0 h, read-out: Percentage of motility inhibition 0 h, Table S2, C. elegans SS assay, 110 μM, 0 h, averages of 4 data points
[2] = 24 h, read-out: Percentage of motility inhibition 24 h, Table S2, C. elegans SS assay, 110 μM, 24 h, averages of 4 data points
[3] = 0 h, read-out: Percentage of motility inhibition 0 h
[4] = 24 h, read-out: Percentage of motility inhibition 24 h

SMILES: Cc1cc(C#N)cc(C)c1Oc1nc(Nc2ccc(C#N)cc2)nc(N)c1Br [Etravirine]
- inhibition at 110 µM [1]: 17%
- inhibition at 110 µM [2]: 2%

SMILES: COc1ccc(-c2cc(=O)c3c(O)c(OC)c(OC)cc3o2)cc1O [Eupatorin]
- inhibition at 110 µM [1]: 7%
- inhibition at 110 µM [2]: 26%

SMILES: CC(C)=CCC[C@@H](C)[C@@H]1CC[C@]2(C)C3=C(CC[C@@]12C)[C@@]1(C)CC[C@H](O)C(C)(C)[C@@H]1CC3 [Euphol]
- inhibition at 110 µM [1]: 0%
- inhibition at 110 µM [2]: 41%

SMILES: C=C1[C@@H](O)[C@]2(O)OC[C@]34[C@H]2[C@@]2(C)[C@H](O)C(=O)C=C(C)[C@@H]2C[C@H]3OC(=O)[C@H](O)[C@@]14O [Eurycomanone]
- inhibition at 110 µM [1]: 0%
- inhibition at 110 µM [2]: 4%

SMILES: C[C@@H]1CC[C@]2(C(=O)O)CC[C@]3(C)C(=CC[C@@H]4[C@@]5(C)C[C@@H](O)[C@@H](O)C(C)(C)[C@@H]5CC[C@]43C)[C@@H]2[C@]1(C)O [Euscaphic acid]
- inhibition at 110 µM [1]: 18%
- inhibition at 110 µM [2]: 27%

SMILES: COc1ccc2c(OC)c3ccoc3nc2c1 [Evolitrine]
- inhibition at 110 µM [1]: 0%
- inhibition at 110 µM [2]: 15%

SMILES: CC(=O)OCC(CCn1cnc2cnc(N)nc21)COC(C)=O [Famciclovir]
- inhibition at 110 µM [1]: 15%
- inhibition at 110 µM [2]: 2%

SMILES: COc1ccc2cc1Oc1ccc(cc1)C[C@H]1c3cc(c(OC)cc3CCN1C)Oc1c(O)c(OC)cc3c1[C@H](C2)N(C)CC3 [Fangchinoline]
- inhibition at 110 µM [1]: 0%
- inhibition at 110 µM [2]: 0%

SMILES: Cc1oc(=O)oc1COC(=O)C1=C([C@H]2CCCO2)S[C@@H]2[C@@H]([C@@H](C)O)C(=O)N12 [Faropenem daloxate]
- inhibition at 110 µM [1]: 5%
- inhibition at 110 µM [2]: 17%

SMILES: Cc1c(O)c(C)c2c(c1O)C(=O)C[C@@H](c1ccc(O)cc1)O2 [Farrerol]
- inhibition at 110 µM [3]: 6%
- inhibition at 110 µM [4]: 9%

SMILES: O=C(C[C@H]1NCCC[C@@H]1O)Cn1cnc2ccccc2c1=O [Febrifugine]
- inhibition at 110 µM [1]: 0%
- inhibition at 110 µM [2]: 0%

SMILES: COC(=O)Nc1nc2ccc(Sc3ccccc3)cc2[nH]1 [Fenbendazole]
- inhibition at 110 µM [1]: 8%
- inhibition at 110 µM [2]: 14%

SMILES: CC12CCC(C1)C(C)(C)C2O (stereo not shown) [Fenchyl alcohol]
- inhibition at 110 µM [1]: 2%
- inhibition at 110 µM [2]: 0%

SMILES: CSc1ccc(OCc2ncc([N+](=O)[O-])n2C)cc1 [Fexinidazole]
- inhibition at 110 µM [1]: 11%
- inhibition at 110 µM [2]: 29%

SMILES: O=c1c(O)c(-c2ccc(O)c(O)c2)oc2cc(O)ccc12 [Fisetin]
- inhibition at 110 µM [1]: 0%
- inhibition at 110 µM [2]: 2%

SMILES: COc1cc(O)c(C(=O)/C=C/c2ccc(O)cc2)c(OC)c1 [Flavokawain C]
- inhibition at 110 µM [1]: 18%
- inhibition at 110 µM [2]: 20%

SMILES: O=c1cc(-c2ccccc2)oc2ccccc12 [Flavone]
- inhibition at 110 µM [1]: 0%
- inhibition at 110 µM [2]: 5%

SMILES: O=c1c(O)c(-c2ccccc2)oc2ccccc12 [Flavonol]
- inhibition at 110 µM [1]: 2%
- inhibition at 110 µM [2]: 10%

SMILES: CCC(=O)c1c(O)cc(O)cc1O [Flopropione]
- inhibition at 110 µM [1]: 40%
- inhibition at 110 µM [2]: 18%

SMILES: CS(=O)(=O)c1ccc([C@@H](O)[C@@H](CF)NC(=O)C(Cl)Cl)cc1 [Florfenicol]
- inhibition at 110 µM [1]: 29%
- inhibition at 110 µM [2]: 9%

SMILES: OC(Cn1cncn1)(Cn1cncn1)c1ccc(F)cc1F [Fluconazole]
- inhibition at 110 µM [1]: 7%
- inhibition at 110 µM [2]: 12%

SMILES: Nc1[nH]c(=O)ncc1F [Flucytosine]
- inhibition at 110 µM [1]: 23%
- inhibition at 110 µM [2]: 32%

SMILES: CC1CCc2cc(F)cc3c(=O)c(C(=O)O)cn1c23 (stereo not shown) [Flumequine]
- inhibition at 110 µM [1]: 20%
- inhibition at 110 µM [2]: 21%

SMILES: Nc1nc(=O)c2nc(CNc3ccc(C(=O)N[C@@H](CCC(=O)O)C(=O)O)cc3)cnc2[nH]1 [Folic acid]
- inhibition at 110 µM [1]: 23%
- inhibition at 110 µM [2]: 17%

SMILES: COc1ccc(-c2coc3cc(O)ccc3c2=O)cc1 [Formononetin]
- inhibition at 110 µM [1]: 6%
- inhibition at 110 µM [2]: 31%

SMILES: C=C[C@@]1(C)CC(=O)[C@]2(O)[C@@]3(C)[C@@H](O)CCC(C)(C)[C@@H]3[C@H](O)[C@H](OC(C)=O)[C@@]2(C)O1 [Forskolin]
- inhibition at 110 µM [1]: 0%
- inhibition at 110 µM [2]: 2%

SMILES: O=P(O)(O)OC(Cn1cncn1)(Cn1cncn1)c1ccc(F)cc1F [Fosfluconazole]
- inhibition at 110 µM [1]: 17%
- inhibition at 110 µM [2]: 0%

SMILES: CC1=C2C(=O)O[C@@H](c3ccoc3)[C@]2(C)CCC1 [Fraxinellone]
- inhibition at 110 µM [1]: 0%
- inhibition at 110 µM [2]: 6%

SMILES: O=C(CO)[C@@H](O)[C@H](O)[C@H](O)CO [Fructose]
- inhibition at 110 µM [1]: 0%
- inhibition at 110 µM [2]: 3%

SMILES: Cc1cccc(C)c1NC(=O)c1ccccc1C(=O)O [Ftaxilide]
- inhibition at 110 µM [1]: 18%
- inhibition at 110 µM [2]: 10%

SMILES: O=C(O)/C=C/C(=O)O [Fumaric acid]
- inhibition at 110 µM [1]: 8%
- inhibition at 110 µM [2]: 5%

SMILES: O=C1CN(/N=C/C=C/c2ccc([N+](=O)[O-])o2)C(=O)N1 [Furagin]
- inhibition at 110 µM [1]: 6%
- inhibition at 110 µM [2]: 0%

SMILES: O=C1OCCN1/N=C/c1ccc([N+](=O)[O-])o1 [Furazolidone]
- inhibition at 110 µM [1]: 21%
- inhibition at 110 µM [2]: 7%

SMILES: CC(=O)O[C@H]1C[C@@]2(C)[C@@H](C[C@@H](O)[C@H]3[C@@]4(C)CC[C@@H](O)[C@@H](C)[C@@H]4CC[C@@]32C)/C1=C(\CCC=C(C)C)C(=O)O [Fusidic acid]
- inhibition at 110 µM [1]: 0%
- inhibition at 110 µM [2]: 1%

SMILES: CC(C)OC(=O)[C@H](C)N[P@](=O)(CO[C@H](C)Cn1cnc2c(N)ncnc21)Oc1ccccc1 [GS‐7340]
- inhibition at 110 µM [3]: 11%
- inhibition at 110 µM [4]: 1%

SMILES: O=c1c(O)c(-c2ccccc2)oc2cc(O)cc(O)c12 [Galangin]
- inhibition at 110 µM [1]: 10%
- inhibition at 110 µM [2]: 8%

SMILES: O=C(O)c1cc(O)c(O)c(O)c1 [Gallic acid]
- inhibition at 110 µM [1]: 66%
- inhibition at 110 µM [2]: 34%

SMILES: CC(C)=CCC/C(C)=C/Cc1c(O)c(CC=C(C)C)c2c(c1O)C(=O)C1=C[C@@H]3C[C@H]4C(C)(C)O[C@@](C/C=C(/C)C(=O)O)(C3=O)[C@@]14O2 [Gambogenic acid]
- inhibition at 110 µM [1]: 1%
- inhibition at 110 µM [2]: 8%

SMILES: Nc1nc(O)c2ncn(COC(CO)CO)c2n1 [Ganciclovir]
- inhibition at 110 µM [1]: 22%
- inhibition at 110 µM [2]: 5%

SMILES: C/C(C=O)=C\CC[C@@H](C)[C@H]1CC[C@@]2(C)C3=CC[C@H]4C(C)(C)C(=O)CC[C@]4(C)C3=CC[C@]12C [Ganoderal A]
- inhibition at 110 µM [1]: 7%
- inhibition at 110 µM [2]: 25%

SMILES: C/C(=C\C(=O)CC(C)C(=O)O)[C@H]1C[C@H](O)[C@@]2(C)C3=C(C(=O)C[C@]12C)[C@@]1(C)CCC(=O)C(C)(C)[C@@H]1C[C@@H]3O (stereo partly shown) [Ganoderenic acid A]
- inhibition at 110 µM [1]: 0%
- inhibition at 110 µM [2]: 0%

SMILES: C/C(=C\C(=O)CC(C)C(=O)O)[C@H]1CC(=O)[C@@]2(C)C3=C(C(=O)C[C@]12C)[C@@]1(C)CC[C@H](O)C(C)(C)[C@@H]1C[C@@H]3O (stereo partly shown) [Ganoderenic acid B]
- inhibition at 110 µM [1]: 0%
- inhibition at 110 µM [2]: 42%

SMILES: C[C@H](CC(=O)C[C@@H](C)[C@H]1C[C@H](O)[C@@]2(C)C3=C(C(=O)C[C@]12C)[C@@]1(C)CCC(=O)C(C)(C)[C@@H]1C[C@@H]3O)C(=O)O [Ganoderic acid A]
- inhibition at 110 µM [1]: 15%
- inhibition at 110 µM [2]: 6%

SMILES: CC(CC(=O)C[C@@H](C)[C@H]1CC(=O)[C@@]2(C)C3=C(C(=O)C[C@]12C)[C@@]1(C)CC[C@H](O)C(C)(C)[C@@H]1C[C@@H]3O)C(=O)O (stereo partly shown) [Ganoderic acid B]
- inhibition at 110 µM [1]: 0%
- inhibition at 110 µM [2]: 20%

SMILES: C/C(=C\CC[C@@H](C)[C@H]1CC[C@@]2(C)C3=C(CC[C@]12C)[C@@]1(C)CCC(=O)C(C)(C)[C@@H]1CC3=O)C(=O)O [Ganoderic acid DM]
- inhibition at 110 µM [3]: 6%
- inhibition at 110 µM [4]: 1%

SMILES: CC(CC(=O)C[C@@H](C)[C@H]1CC(=O)[C@@]2(C)C3=C(C(=O)C[C@]12C)[C@@]1(C)CCC(=O)C(C)(C)[C@@H]1C[C@@H]3O)C(=O)O (stereo partly shown) [Ganoderic acid D]
- inhibition at 110 µM [1]: 0%
- inhibition at 110 µM [2]: 21%

SMILES: CC(=O)O[C@@H]1C(=O)C2=C(C(=O)C[C@H]3C(C)(C)C(=O)CC[C@]23C)[C@]2(C)C(=O)C[C@H]([C@H](C)CC(=O)CC(C)C(=O)O)[C@@]12C (stereo partly shown) [Ganoderic acid F]
- inhibition at 110 µM [1]: 14%
- inhibition at 110 µM [2]: 2%

SMILES: CC(CC(=O)C[C@@H](C)[C@H]1CC(=O)[C@@]2(C)C3=C(C(=O)[C@@H](O)[C@]12C)[C@@]1(C)CC[C@H](O)C(C)(C)[C@@H]1C[C@@H]3O)C(=O)O (stereo partly shown) [Ganoderic acid G]
- inhibition at 110 µM [1]: 0%
- inhibition at 110 µM [2]: 3%

SMILES: C/C(=C\CC[C@@H](C)[C@H]1CC[C@@]2(C)C3=CC[C@H]4C(C)(C)[C@@H](O)CC[C@]4(C)C3=CC[C@]12C)CO [Ganoderol B]
- inhibition at 110 µM [1]: 5%
- inhibition at 110 µM [2]: 35%

SMILES: C=C(C)[C@@H](CC=C(C)C)C[C@@]12C[C@@H](CC=C(C)C)C(C)(C)[C@@](CC=C(C)C)(C(=O)C(C(=O)c3ccc(O)c(O)c3)=C1O)C2=O [Garcinol]
- inhibition at 110 µM [1]: 8%
- inhibition at 110 µM [2]: 3%

SMILES: COc1ccc(-c2cc(=O)c3c(O)c(OC)c(OC)c(OC)c3o2)cc1 [Gardenin B]
- inhibition at 110 µM [1]: 6%
- inhibition at 110 µM [2]: 0%

SMILES: COC(=O)C1=CO[C@@H](O[C@@H]2O[C@H](CO)[C@@H](O)[C@H](O)[C@H]2O)[C@H]2[C@@H]1C=C[C@@]2(O)CO [Gardenoside]
- inhibition at 110 µM [3]: 0%
- inhibition at 110 µM [4]: 8%

SMILES: OCc1ccc(O[C@@H]2O[C@H](CO)[C@@H](O)[C@H](O)[C@H]2O)cc1 [Gastrodin]
- inhibition at 110 µM [3]: 4%
- inhibition at 110 µM [4]: 8%

SMILES: COc1c(N2CCNC(C)C2)c(F)cc2c(=O)c(C(=O)O)cn(C3CC3)c12 (stereo not shown) [Gatifloxaci n]
- inhibition at 110 µM [1]: 0%
- inhibition at 110 µM [2]: 0%

SMILES: C=C[C@]12CN(C)[C@@H]3[C@H]4CO[C@H](C[C@H]41)[C@]1(C(=O)Nc4ccccc41)[C@@H]32 [Gelsemi ne]
- inhibition at 110 µM [1]: 0%
- inhibition at 110 µM [2]: 0%

SMILES: COC(=O)C1=CO[C@@H](O)[C@@H]2C(CO)=CC[C@H]12 [Genipin]
- inhibition at 110 µM [1]: 0%
- inhibition at 110 µM [2]: 0%
